Measurements reported in ChEMBL document CHEMBL3865788, “Synthesis, characterization and interaction studies of 1,3,4-oxadiazole derivatives of fatty acid with human serum albumin (HSA): A combined multi-spectroscopic and molecular docking study” (Eur J Med Chem, 2016).

Key:
Assay type in all cases: ADME
Settings in all cases: isolated protein
[1] = target: T1, Albumin (Homo sapiens, UniProt P02768); test: Binding affinity to human serum albumin assessed as absorbance at 280 nanometer at 50 and 100 uM by UV-vis spectroscopy
[2] = target: T1, Albumin; test: Binding affinity to human serum albumin assessed as Stern-Volmer quenching constant in steady state at 298K and pH 7.4 by fluorescence spectroscopy
[3] = target: T1, Albumin; test: Binding affinity to human serum albumin assessed as quenching constant in steady state at 298K and pH 7.4 by fluorescence spectroscopy
[4] = target: T1, Albumin; test: Binding affinity to human serum albumin assessed as binding constant in steady state at 298K and pH 7.4 by fluorescence spectroscopy

T1 sequence (P02768 whole entry): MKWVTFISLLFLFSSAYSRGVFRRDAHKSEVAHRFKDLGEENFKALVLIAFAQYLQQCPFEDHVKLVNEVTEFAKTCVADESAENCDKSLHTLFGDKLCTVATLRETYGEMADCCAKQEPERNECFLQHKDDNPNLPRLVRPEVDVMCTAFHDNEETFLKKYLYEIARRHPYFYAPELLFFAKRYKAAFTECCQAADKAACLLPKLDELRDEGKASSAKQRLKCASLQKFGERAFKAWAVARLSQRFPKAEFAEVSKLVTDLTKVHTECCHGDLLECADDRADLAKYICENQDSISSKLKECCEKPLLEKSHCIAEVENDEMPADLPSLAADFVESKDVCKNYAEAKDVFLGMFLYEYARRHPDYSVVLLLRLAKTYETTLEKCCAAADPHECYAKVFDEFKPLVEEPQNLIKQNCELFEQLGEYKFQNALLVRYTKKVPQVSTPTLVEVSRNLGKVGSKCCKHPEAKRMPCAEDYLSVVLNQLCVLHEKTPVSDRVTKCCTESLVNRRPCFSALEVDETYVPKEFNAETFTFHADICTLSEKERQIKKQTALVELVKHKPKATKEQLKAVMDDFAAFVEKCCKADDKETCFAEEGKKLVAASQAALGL

- Activity [1]: < 0.03
- KSV [2]: 3.6 ×10³ /M
- Kq [3]: 6.4 ×10¹¹ /M/s
- Kb [4]: 2.95 ×10³ /M
SMILES: CCCCCCCC/C=C\CCCCCCCc1nnc(C)o1
